According to patent US3954737A, “Atropisomeric ansa ring compounds” (University of Illinois Foundation, priority 1974, dated 1976):

Experiments:
Reverse Transcriptase = test: Reverse transcriptase (RNA-directed DNA polymerase) inhibition; format: biochemical; set-up: concentration or dose not given beside the values
Source text: (§1) Tables II, III and IV below respectively set forth activities of representative atropisomeric forms of ansa ring compounds of the invention relative to the "normal" isomeric forms in the following assays: (A) reverse transcriptase (RNA-directed DNA polymerase); (B) bacterial RNA polymerase; (C) B. subtilis bacterial inhibition; (D) S. lutea bacterial inhibition; and, inhibition of numerous other bacterial strains.
The assay and work-up conditions for reverse transcriptase analysis were essentially those described by Brockman, et al., (Nature, 230, 249, (1971)), except for eliminating the phosphate from the washing solution (10 percent trichloroacetic acid).

E.Coli RNA Polymerase = E.Coli RNA Polymerase (Escherichia coli, UniProt P0A8V2); test: Bacterial RNA polymerase inhibition; format: biochemical; set-up: concentration or dose not given beside the values; conditions: pH 7.9, 30°C, 15 min
E.Coli RNA Polymerase, sequence (P0A8V2 whole entry): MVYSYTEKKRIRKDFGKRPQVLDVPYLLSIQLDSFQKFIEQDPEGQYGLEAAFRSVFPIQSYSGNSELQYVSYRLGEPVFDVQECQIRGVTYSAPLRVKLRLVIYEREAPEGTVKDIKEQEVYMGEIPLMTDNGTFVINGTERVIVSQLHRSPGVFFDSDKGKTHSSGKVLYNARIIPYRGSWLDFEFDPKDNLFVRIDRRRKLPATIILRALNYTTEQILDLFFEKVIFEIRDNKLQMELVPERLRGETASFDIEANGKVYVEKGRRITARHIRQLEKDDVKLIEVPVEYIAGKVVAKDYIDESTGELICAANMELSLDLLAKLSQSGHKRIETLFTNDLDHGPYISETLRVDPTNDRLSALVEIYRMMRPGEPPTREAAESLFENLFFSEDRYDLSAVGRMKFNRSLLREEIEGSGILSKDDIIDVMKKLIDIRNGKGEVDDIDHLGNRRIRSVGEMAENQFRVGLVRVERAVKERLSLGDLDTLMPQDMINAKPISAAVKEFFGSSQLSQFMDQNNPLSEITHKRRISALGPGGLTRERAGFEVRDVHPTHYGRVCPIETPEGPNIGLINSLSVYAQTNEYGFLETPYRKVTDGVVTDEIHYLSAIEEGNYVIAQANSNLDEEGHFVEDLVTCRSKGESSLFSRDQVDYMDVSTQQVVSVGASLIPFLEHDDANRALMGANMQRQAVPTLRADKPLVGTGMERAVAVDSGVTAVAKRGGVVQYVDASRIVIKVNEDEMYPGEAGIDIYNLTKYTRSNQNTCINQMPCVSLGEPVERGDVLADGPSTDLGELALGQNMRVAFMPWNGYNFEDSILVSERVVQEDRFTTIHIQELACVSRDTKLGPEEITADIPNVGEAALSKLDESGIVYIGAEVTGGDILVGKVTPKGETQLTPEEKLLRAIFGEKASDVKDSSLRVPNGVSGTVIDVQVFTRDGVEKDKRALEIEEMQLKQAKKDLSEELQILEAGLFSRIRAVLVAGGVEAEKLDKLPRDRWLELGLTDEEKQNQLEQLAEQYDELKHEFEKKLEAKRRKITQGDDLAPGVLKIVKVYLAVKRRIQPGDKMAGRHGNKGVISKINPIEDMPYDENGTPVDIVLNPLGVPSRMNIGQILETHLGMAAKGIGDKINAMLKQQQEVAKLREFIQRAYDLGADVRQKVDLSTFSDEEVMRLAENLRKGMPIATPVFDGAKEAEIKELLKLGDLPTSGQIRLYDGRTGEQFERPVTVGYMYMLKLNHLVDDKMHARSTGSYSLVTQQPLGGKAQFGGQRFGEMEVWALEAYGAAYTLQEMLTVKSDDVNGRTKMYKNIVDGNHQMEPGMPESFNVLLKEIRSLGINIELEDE
E.Coli RNA Polymerase, sequence (P0A8T7 whole entry partner): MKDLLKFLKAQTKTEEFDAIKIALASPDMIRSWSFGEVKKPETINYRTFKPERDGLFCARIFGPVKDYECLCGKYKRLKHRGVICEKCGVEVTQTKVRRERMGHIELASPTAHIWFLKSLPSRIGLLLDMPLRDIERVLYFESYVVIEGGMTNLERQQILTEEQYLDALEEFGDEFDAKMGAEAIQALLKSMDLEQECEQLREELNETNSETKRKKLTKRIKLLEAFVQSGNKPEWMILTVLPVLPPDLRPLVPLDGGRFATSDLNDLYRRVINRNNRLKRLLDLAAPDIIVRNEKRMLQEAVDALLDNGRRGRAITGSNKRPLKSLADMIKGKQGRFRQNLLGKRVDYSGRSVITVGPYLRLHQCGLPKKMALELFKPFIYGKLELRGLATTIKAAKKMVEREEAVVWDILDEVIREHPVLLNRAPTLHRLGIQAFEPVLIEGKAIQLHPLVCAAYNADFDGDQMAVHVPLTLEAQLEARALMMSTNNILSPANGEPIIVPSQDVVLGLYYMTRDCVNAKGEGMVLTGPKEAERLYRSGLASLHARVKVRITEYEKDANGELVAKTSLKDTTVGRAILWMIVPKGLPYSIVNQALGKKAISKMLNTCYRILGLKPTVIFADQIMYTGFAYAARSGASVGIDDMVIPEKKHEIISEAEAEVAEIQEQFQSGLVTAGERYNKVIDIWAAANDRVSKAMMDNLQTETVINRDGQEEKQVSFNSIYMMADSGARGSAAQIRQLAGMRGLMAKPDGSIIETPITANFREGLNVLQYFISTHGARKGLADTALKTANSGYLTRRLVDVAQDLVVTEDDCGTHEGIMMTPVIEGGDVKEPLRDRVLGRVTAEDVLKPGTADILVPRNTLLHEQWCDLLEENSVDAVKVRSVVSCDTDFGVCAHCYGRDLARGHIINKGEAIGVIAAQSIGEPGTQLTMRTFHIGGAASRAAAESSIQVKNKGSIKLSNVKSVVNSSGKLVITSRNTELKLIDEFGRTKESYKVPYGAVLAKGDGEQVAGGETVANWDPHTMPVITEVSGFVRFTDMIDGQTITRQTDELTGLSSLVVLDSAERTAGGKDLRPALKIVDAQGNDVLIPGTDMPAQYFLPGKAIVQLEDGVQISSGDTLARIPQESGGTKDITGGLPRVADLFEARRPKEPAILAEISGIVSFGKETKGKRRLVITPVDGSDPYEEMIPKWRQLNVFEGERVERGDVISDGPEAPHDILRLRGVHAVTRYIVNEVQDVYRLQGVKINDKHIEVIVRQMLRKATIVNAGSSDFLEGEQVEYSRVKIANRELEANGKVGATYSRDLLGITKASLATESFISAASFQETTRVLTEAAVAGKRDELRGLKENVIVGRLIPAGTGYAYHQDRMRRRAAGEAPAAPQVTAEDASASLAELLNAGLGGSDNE
E.Coli RNA Polymerase, sequence (P0A7Z4 whole entry partner): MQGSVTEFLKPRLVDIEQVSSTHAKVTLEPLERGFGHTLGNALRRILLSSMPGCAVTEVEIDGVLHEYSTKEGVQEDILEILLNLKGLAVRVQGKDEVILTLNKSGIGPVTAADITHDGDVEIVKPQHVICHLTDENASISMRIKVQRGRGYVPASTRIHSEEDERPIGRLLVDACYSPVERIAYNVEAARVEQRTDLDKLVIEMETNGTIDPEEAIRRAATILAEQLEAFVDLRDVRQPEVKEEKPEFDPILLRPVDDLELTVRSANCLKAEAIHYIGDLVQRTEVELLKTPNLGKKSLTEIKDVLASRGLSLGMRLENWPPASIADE
E.Coli RNA Polymerase, sequence (P0A800 whole entry partner): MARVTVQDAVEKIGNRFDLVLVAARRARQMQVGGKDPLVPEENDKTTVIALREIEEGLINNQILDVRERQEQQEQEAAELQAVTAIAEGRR
Source text: as §1
The assay for bacterial RNA polymerase followed the procedure of Reusser (J. Bacteriol, 105, 580 (1971)). Assay mixtures were prepared containing in a total volume of 0.25 ml: Tris-hydrochloride buffer, pH 7.9, 5 μmoles; MgCl2, 1 μmole; mercaptoethanol, 3 μmoles; MnCl2, 0.25 μmole; quanosine triphosphate, cytidine triphosphate, uridine triphosphate, 0.1 μmole each; adenosine triphosphate 8-^14 C, 0.1 μmole containing 0.05 μCi; dAT, 0.2 units; polymerase, ~35 μg. The reaction mixtures were incubated at 30°C for 15 min.

S. schottmuelleri = S. schottmuelleri growth inhibition; format: cell-based
Procedure: (§2) Assays for inhibition of other bacterial strains were carried out according to standard uniform procedures.

B. subtilis = B. subtilis bacterial inhibition, zone of inhibition (paper disc on agar); format: cell-based, B. subtilis UC 564; conditions: 1/2 inch paper discs, 0.08 ml per disc
Procedure: The assay for B. subtilis bacterial inhibition was obtained on plates with B. subtilis UC 564 spores in agar with the following composition per liter:
After autoclaving, 10 ml. of 20 percent glucose was added. The seeding rate was approximately 10^9 spores per liter. Test solutions were applied to 1/2 inch paper discs (Schleicher & Schuell 740E) with 0.08 ml. per disc. Zones of inhibition were recorded.

K. pneumoniae = K. pneumoniae growth inhibition; format: cell-based
Procedure: as §2

P. vulgaris = P. vulgaris growth inhibition; format: cell-based
Procedure: as §2

S. lutea = S. lutea bacterial inhibition; format: cell-based; conditions: brain heart broth, 37°, 16-18 hours
Procedure: The assay for S. lutea inhibition was as follows. Water-soluble preparations were dissolved in brain heart infusion broth (Difco) to 1 mg./ml. Water-insoluble preparations were dissolved (or suspended) in dimethylformamide to 10 mg./ml. and diluted with brain heart broth to 1 mg./ml. Two-fold serial dilutions were made with broth starting with 1 mg./ml. with final volumes of 0.1 ml. per dilution. Overnight bacterial cultures were diluted 1:20,000 with brain heart and 0.1 ml. of diluted culture was added to each dilution of antibiotic (final total volume was 0.2 ml.). This was all done in plastic microtest plates (Microtest II Tissue Culture Plate, Bioquest). The plates were incubated at 37° for 16-18 hours and zones of inhibition were recorded.

E. coli = E. coli growth inhibition; format: cell-based
Procedure: as §2

M. avium = M. avium growth inhibition; format: cell-based
Procedure: as §2

S. aureus = S. aureus growth inhibition; format: cell-based
Procedure: as §2

P. oxalicum = P. oxalicum growth inhibition; format: cell-based
Procedure: as §2

S. pasteurianum = S. pasteurianum growth inhibition; format: cell-based
Procedure: as §2

B. cereus = B. cereus growth inhibition; format: cell-based
Procedure: as §2

P. aeruginosa = P. aeruginosa growth inhibition; format: cell-based
Procedure: as §2

Molecule | Reverse Transcriptase % Inhibition (Reverse Transcriptase; Table IIA) [%] | E.Coli RNA Polymerase % Inhibition (E.Coli RNA Polymerase; Table IIIA) [%] | Zone of Inhibition (S. schottmuelleri) [mm.] | Zone of Inhibition (B. subtilis) [mm.] | Zone of Inhibition (K. pneumoniae) [mm.] | Zone of Inhibition (P. vulgaris) [mm.] | Zone of Inhibition (S. lutea) [mm.] | Zone of Inhibition (E. coli) [mm.] | Reverse Transcriptase % Inhibition (Reverse Transcriptase; Table II) | E.Coli RNA Polymerase % Inhibition (E.Coli RNA Polymerase; Table III) [%] | Zone of Inhibition (M. avium) [mm.] | Zone of Inhibition (S. aureus) [mm.] | Zone of Inhibition (P. oxalicum) [mm.] | Zone of Inhibition (S. pasteurianum) [mm.] | Zone of Inhibition (B. cereus) [mm.] | Zone of Inhibition (P. aeruginosa) [mm.]
atropisostreptovaricin C triacetate cyclic benzeneboronate | 77 | 23 |  |  |  |  |  |  |  |  |  |  |  |  |  | 
COC(=O)[C@@H]1[C@H](O)[C@H](C)[C@H](O)[C@H](C)/C=C\C=C(/C)C(=O)Nc2c(C)c(OC(C)=O)c3c(c2O)C(=O)C(C)=C2OCOC(=C23)/C(C)=C/[C@@](C)(O)[C@H](O)[C@@H](C)[C@H]1O [Streptovaricin C, streptovaricin C, reference compound] |  |  | 10 | 22 | 21 | 8 | 33 | 13 | 31-53% | 78 | 15 | 26 | 0 |  |  | 
streptovaricin C triacetate cyclic bromobenzeneboronate [reference compound] | 57 | 20 |  |  |  |  |  |  |  |  |  |  |  |  |  | 
atropisostreptovaricin C triacetate cyclic bromobenzeneboronate [Atropisostreptovaricin C Triacetate Cyclic p-Bromobenzeneboronate] | 66 | 46 |  |  |  |  |  |  |  |  |  |  |  |  |  | 
atropisostreptovaricin Fc |  |  | 0 | 0 | 0 | 0 | 0 | 0 | 54% | 0 | 0 | 0 | 0 | 0 | 0 | 0
streptovaricin C triacetate cyclic benzeneboronate [reference compound] | 44 | 2 |  |  |  |  |  |  |  |  |  |  |  |  |  | 
CC(=O)Oc1c(C)c2c(O)c3c1C1=C(OCOC1=C(C)C3=O)C(C)=CC(C)(O)C(O)C(C)C(O)C1C(=O)OC(C(C)/C=C\C=C(C)C(=O)N2)C(C)C1O (stereo not shown) [Streptovaricin Fc, streptovaricin Fc, reference compound] |  |  | 0 | 0 | 0 | 0 | 0 | 0 | 68% | 0 | 14 | 0 | 0 | 0 | 0 | 0
COC(=O)C1C(O)C(C)C(O)C(C)/C=C/C=C(\C)C(=O)Nc2c(C)c(OC(C)=O)c3c(c2O)C(=O)C(C)=C2OCOC(=C23)/C(C)=C\C(C)(O)C(O)C(C)C1O (stereo not shown) [Atropisostreptovaricin C, atropisostreptovaricin C] |  |  | 0 | 14 | 0 | 0 | 28 | 0 | 70% | 50 | 20 | 20 | 0 | 0 | 9 | 0
